According to patent US20090298820A1, “3-SUBSTITUTED-1H-PYRROLO[2,3-B]PYRIDINE AND 3-SUBSTITUTED-1H-PYRROLO[3,2-B]PYRIDINE COMPOUNDS, THEIR USE AS MTOR KINASE AND PI3 KINASE INHIBITORS, AND THEIR SYNTHESES” (Wyeth, priority 2008, published 2009):

What was measured:
[1] = molecular target: PI3Kα (Homo sapiens, UniProt P42336); test: PI3K-alpha fluorescence polarization assay; assay type: biochemical; conditions: read-out: PI3Kα Median IC50
[2] = molecular target: PI3Kγ (Homo sapiens, UniProt P48736); test: PI3K-gamma fluorescence polarization assay; assay type: biochemical; conditions: read-out: PI3Kγ Median IC50
[3] = molecular target: mTOR (Homo sapiens, UniProt P42345); test: mTOR enzyme assay (DELFIA format, His6-S6K substrate); assay type: biochemical; conditions: read-out: mTOR Kinase Median IC50

Sequence of PI3Kα (P42336 whole entry, species assumed): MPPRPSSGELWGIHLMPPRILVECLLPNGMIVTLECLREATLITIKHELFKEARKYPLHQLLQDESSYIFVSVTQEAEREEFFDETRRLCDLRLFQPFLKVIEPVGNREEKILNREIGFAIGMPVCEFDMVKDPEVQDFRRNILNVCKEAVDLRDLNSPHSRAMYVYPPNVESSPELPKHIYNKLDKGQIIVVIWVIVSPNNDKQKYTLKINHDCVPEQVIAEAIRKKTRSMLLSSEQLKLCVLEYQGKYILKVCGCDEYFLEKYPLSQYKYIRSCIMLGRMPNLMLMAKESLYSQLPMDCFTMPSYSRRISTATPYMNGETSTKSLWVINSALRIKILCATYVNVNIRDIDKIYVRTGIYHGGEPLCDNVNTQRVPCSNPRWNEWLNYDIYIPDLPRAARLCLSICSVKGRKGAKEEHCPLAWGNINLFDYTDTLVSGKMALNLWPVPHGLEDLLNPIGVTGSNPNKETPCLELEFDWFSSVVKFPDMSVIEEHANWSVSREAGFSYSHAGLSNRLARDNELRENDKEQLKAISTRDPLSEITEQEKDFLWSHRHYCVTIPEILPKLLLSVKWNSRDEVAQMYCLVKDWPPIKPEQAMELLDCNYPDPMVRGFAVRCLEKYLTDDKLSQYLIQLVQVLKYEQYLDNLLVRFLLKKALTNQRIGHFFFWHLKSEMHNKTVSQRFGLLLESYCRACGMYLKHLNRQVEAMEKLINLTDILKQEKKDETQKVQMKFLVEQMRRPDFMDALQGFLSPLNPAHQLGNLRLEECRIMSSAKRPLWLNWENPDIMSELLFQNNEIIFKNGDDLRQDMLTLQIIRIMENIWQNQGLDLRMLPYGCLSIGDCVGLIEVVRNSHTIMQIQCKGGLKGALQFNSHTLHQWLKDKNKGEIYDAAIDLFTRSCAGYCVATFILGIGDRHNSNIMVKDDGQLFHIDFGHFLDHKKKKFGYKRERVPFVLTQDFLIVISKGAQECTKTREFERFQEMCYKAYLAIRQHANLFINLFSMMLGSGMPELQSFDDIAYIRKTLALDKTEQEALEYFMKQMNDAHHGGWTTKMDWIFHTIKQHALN
Sequence of PI3Kα (P27986 whole entry partner, species assumed): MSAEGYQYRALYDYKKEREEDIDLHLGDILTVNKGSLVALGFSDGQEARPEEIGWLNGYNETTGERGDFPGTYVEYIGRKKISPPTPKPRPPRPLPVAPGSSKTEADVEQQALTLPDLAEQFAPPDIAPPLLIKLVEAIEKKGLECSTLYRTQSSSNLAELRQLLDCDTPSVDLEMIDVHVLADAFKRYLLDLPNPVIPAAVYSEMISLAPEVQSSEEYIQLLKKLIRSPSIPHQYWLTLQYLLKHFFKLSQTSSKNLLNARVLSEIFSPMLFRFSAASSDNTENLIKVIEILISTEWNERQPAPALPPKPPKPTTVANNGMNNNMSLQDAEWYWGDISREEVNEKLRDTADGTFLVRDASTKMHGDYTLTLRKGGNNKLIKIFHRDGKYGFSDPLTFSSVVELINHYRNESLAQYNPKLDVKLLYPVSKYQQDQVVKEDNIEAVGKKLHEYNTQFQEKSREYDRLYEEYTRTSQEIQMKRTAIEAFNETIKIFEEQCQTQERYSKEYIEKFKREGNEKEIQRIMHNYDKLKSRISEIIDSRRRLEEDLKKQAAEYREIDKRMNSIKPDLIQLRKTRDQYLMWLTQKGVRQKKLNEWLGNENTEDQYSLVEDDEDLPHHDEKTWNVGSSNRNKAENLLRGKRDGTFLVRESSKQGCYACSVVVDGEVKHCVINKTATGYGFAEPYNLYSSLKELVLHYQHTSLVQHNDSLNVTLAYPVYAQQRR
Sequence of PI3Kγ (P48736 whole entry, species assumed): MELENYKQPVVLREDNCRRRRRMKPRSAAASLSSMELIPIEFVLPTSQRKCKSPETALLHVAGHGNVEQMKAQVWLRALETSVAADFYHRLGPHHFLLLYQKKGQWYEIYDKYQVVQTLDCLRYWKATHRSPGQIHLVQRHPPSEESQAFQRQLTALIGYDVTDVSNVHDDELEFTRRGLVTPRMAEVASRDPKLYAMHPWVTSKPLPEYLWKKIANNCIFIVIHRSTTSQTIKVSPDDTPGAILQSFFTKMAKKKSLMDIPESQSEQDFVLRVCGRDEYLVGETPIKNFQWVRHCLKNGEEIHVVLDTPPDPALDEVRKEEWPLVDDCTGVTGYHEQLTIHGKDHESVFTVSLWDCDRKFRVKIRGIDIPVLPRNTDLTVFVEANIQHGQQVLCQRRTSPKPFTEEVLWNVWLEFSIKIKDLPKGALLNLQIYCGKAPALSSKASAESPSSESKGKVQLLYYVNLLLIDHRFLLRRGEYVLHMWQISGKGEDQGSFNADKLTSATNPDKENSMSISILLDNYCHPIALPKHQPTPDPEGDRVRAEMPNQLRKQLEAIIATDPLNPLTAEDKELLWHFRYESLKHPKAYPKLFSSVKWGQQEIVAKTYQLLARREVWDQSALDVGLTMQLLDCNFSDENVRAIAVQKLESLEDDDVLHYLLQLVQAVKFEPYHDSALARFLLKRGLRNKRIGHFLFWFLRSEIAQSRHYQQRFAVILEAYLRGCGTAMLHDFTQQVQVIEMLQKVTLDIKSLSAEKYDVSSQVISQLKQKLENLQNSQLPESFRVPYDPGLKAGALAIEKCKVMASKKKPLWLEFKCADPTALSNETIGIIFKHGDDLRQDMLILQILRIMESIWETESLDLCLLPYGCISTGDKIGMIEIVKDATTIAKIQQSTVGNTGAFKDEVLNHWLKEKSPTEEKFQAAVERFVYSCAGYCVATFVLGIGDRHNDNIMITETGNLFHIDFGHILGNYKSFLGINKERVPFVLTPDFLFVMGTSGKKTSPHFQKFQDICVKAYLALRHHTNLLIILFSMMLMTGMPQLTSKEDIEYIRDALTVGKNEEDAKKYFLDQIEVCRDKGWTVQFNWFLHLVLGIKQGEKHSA

Row | SMILES | IC50 [1] | IC50 [2] | IC50 [3] | melting point
1 | Cn1cc(/C=C2\Oc3cc(O)cc(O)c3C2=O)c2c(-c3ccc(S(C)(=O)=O)cc3)ccnc21 [Compound 72, (2Z)-4,6-dihydroxy-2-({1-methyl-4-[4-(methylsulfonyl)phenyl]-1H-pyrrolo[2,3-b]pyridin-3-yl}methylene)-1-benzofuran-3(2H)-one] | 5 nM | 66 nM | 0.7 nM | 276 to 286 °C
2 | Cn1cc(/C=C2\Oc3ccc(NC(=O)Nc4cccnc4)cc3C2=O)c2c(N3CC4CCC(C3)O4)ccnc21 [Compound 167, 1-[(2Z)-2-{[1-methyl-4-(8-oxa-3-azabicyclo[3.2.1]oct-3-yl)-1H-pyrrolo[2,3-b]pyridin-3-yl]methylidene}-3-oxo-2,3-dihydro-1-benzofuran-5-yl]-3-pyridin-3-ylurea] | 2080 nM | > 10000 nM | 14.3 nM | 226 to 230 °C
3 | CNC(=O)Nc1ccc2c(c1)C(=O)/C(=C/c1cn(C)c3nccc(N4CC5CCC(C4)O5)c13)O2 [Compound 131, 1-methyl-3-[(2Z)-2-{[1-methyl-4-(8-oxa-3-azabicyclo[3.2.1]oct-3-yl)-1H-pyrrolo[2,3-b]pyridin-3-yl]methylene}-3-oxo-2,3-dihydro-1-benzofuran-5-yl]urea] | 580 nM | 557 nM | 9.5 nM | 247 to 255 °C
4 | CN(Cc1ccncc1)C(=O)C1CCN(c2ccnc3c2c(/C=C2\Oc4ccc(NC(=O)Nc5cccnc5)cc4C2=O)cn3C)CC1 [Compound 255, N-methyl-1-{1-methyl-3-[(Z)-{3-oxo-5-[(pyridin-3-ylcarbamoyl)amino]-1-benzofuran-2(3H)-ylidene}methyl]-1H-pyrrolo[2,3-b]pyridin-4-yl}-N-(pyridin-4-ylmethyl)piperidine-4-carboxamide] | 1230 nM | 2410 nM | 9.3 nM | 125 to 135 °C
5 | C[C@@H]1CN(c2ccnc3c2c(/C=C2\Oc4ccc(NC(=O)Nc5cccnc5)cc4C2=O)cn3C)C[C@H](C)O1 [Compound 296, 1-[(2Z)-2-({4-[(2R,6S)-2,6-dimethylmorpholin-4-yl]-1-methyl-1H-pyrrolo[2,3-b]pyridin-3-yl}methylidene)-3-oxo-2,3-dihydro-1-benzofuran-5-yl]-3-pyridin-3-ylurea] | 239 nM | 1160 nM | 19 nM | 255 to 260 °C
6 | CN(C(=O)C1CCN(c2ccnc3c2c(/C=C2\Oc4ccc(NC(=O)Nc5cccnc5)cc4C2=O)cn3C)CC1)c1cccnc1 [Compound 269, N-methyl-1-{1-methyl-3-[(Z)-{3-oxo-5-[(pyridin-3-ylcarbamoyl)amino]-1-benzofuran-2(3H)-ylidene}methyl]-1H-pyrrolo[2,3-b]pyridin-4-yl}-N-pyridin-3-ylpiperidine-4-carboxamide] | 4960 nM | 5750 nM | 13 nM | 184 to 194 °C
7 | COCCN(C)C(=O)C1CCN(c2ccnc3c2c(/C=C2\Oc4ccc(NC(=O)Nc5cccnc5)cc4C2=O)cn3C)CC1 [Compound 246, N-(2-methoxyethyl)-N-methyl-1-{1-methyl-3-[(Z)-{3-oxo-5-[(pyridin-3-ylcarbamoyl)amino]-1-benzofuran-2(3H)-ylidene}methyl]-1H-pyrrolo[2,3-b]pyridin-4-yl}piperidine-4-carboxamide] | 1420 nM | 1540 nM | 30.5 nM | 282 to 285 °C
8 | Cn1cc(/C=C2\Oc3ccc(NC(=O)Nc4cccnc4)cc3C2=O)c2c(N3CCC(C(=O)N4C5CCCC4COC5)CC3)ccnc21 [Compound 309, 1-[(2Z)-2-({1-methyl-4-[4-(3-oxa-9-azabicyclo[3.3.1]non-9-ylcarbonyl)piperidin-1-yl]-1H-pyrrolo[2,3-b]pyridin-3-yl}methylidene)-3-oxo-2,3-dihydro-1-benzofuran-5-yl]-3-pyridin-3-ylurea] | 164 nM | 1370 nM | 48 nM | 210 to 215 °C
9 | Cn1cc(/C=C2\Oc3cc(O)ccc3C2=O)c2c(-c3ccccc3)ccnc21 [Compound 30, (2Z)-6-hydroxy-2-[(1-methyl-4-phenyl-1H-pyrrolo[2,3-b]pyridin-3-yl)methylene]-1-benzofuran-3(2H)-one] | 219 nM | 2380 nM | 19 nM | 314 to 316 °C (dec.)
10 | COCCC1CN(c2ccnc3c2c(/C=C2\Oc4ccc(NC(=O)Nc5cccnc5)cc4C2=O)cn3C)CCO1 (stereo not drawn) [Compound 297, 1-[(2Z)-2-({4-[2-(2-methoxyethyl)morpholin-4-yl]-1-methyl-1H-pyrrolo[2,3-b]pyridin-3-yl}methylidene)-3-oxo-2,3-dihydro-1-benzofuran-5-yl]-3-pyridin-3-ylurea] | 884 nM | 1930 nM | 25.5 nM | 225 to 260 °C
11 | CN(C)C(=O)C1CCN(c2ccnc3c2c(/C=C2\Oc4ccc(Br)cc4C2=O)cn3C)CC1 [Compound 169, 1-{3-[(Z)-(5-bromo-3-oxo-1-benzofuran-2(3H)-ylidene)methyl]-1-methyl-1H-pyrrolo[2,3-b]pyridin-4-yl}-N,N-dimethylpiperidine-4-carboxamide] | > 10000 nM | 1170 nM | 11.5 nM | 241 °C
12 | CNC(=O)Nc1ccc2c(c1)C(=O)/C(=C/c1cn(C)c3nccc(N4CCC(C(=O)N(C)C)CC4)c13)O2 [Compound 168, N,N-dimethyl-1-{1-methyl-3-[(Z)-{5-[(methylcarbamoyl)amino]-3-oxo-1-benzofuran-2(3H)-ylidene}methyl]-1H-pyrrolo[2,3-b]pyridin-4-yl}piperidine-4-carboxamide] | 420 nM | 487 nM | 6.7 nM | 203 °C
13 | Cn1cc(/C=C2\Oc3ccc(NC(=O)Nc4cccnc4)cc3C2=O)c2c(N3CCC(C(=O)N4CCOCC4)CC3)ccnc21 [Compound 173, 1-[(2Z)-2-({1-methyl-4-[4-(morpholin-4-ylcarbonyl)piperidin-1-yl]-1H-pyrrolo[2,3-b]pyridin-3-yl}methylidene)-3-oxo-2,3-dihydro-1-benzofuran-5-yl]-3-pyridin-3-ylurea] | > 10000 nM | > 10000 nM | 18 nM | 246 to 251 °C
14 | CN(C)C(=O)C1CCN(c2ccnc3c2c(/C=C2\Oc4ccc(NC(=O)N5CCOCC5)cc4C2=O)cn3C)CC1 [Compound 170, N-[(2Z)-2-({4-[4-(dimethylcarbamoyl)piperidin-1-yl]-1-methyl-1H-pyrrolo[2,3-b]pyridin-3-yl}methylidene)-3-oxo-2,3-dihydro-1-benzofuran-5-yl]morpholine-4-carboxamide] | 3110 nM | > 10000 nM | 91.5 nM | 128 °C
15 | CN(C)C(=O)C1CCN(c2ccnc3c2c(/C=C2\Oc4cccc(O)c4C2=O)cn3C)CC1 [Compound 145, 1-{3-[(Z)-(4-hydroxy-3-oxo-1-benzofuran-2(3H)-ylidene)methyl]-1-methyl-1H-pyrrolo[2,3-b]pyridin-4-yl}-N,N-dimethylpiperidine-4-carboxamide] | 38 nM | 74 nM | 0.6 nM | 185 to 195 °C
